ChEMBL document CHEMBL3763064, “Discovery of silyl proline containing HCV NS5A inhibitors with pan-genotype activity: SAR development” (Bioorg Med Chem Lett, 2016)
pEC50: −log10 of the molar value.

What was measured:
Hepatitis C virus [1] = test: Antiviral activity against HCV genotype 2a by replicon assay; format: functional, organism-based, Hepacivirus hominis
Hepatitis C virus [2] = test: Antiviral activity against HCV genotype 1a expressing NS5A Y93H mutant by replicon assay; format: functional, organism-based, Hepacivirus hominis; conditions: subtype 1a
Hepatitis C virus [3] = test: Antiviral activity against HCV genotype 1b by replicon assay; format: functional, organism-based, Hepacivirus hominis
Hepatitis C virus [4] = test: Antiviral activity against HCV genotype 1a by replicon assay; format: functional, organism-based, Hepacivirus hominis; conditions: subtype 1a
[5] = target: T1, Nuclear receptor subfamily 1 group I member 2 (Homo sapiens, UniProt O75469); test: Activation of PXR (unknown origin); format: ADME
T1 sequence (O75469 whole entry): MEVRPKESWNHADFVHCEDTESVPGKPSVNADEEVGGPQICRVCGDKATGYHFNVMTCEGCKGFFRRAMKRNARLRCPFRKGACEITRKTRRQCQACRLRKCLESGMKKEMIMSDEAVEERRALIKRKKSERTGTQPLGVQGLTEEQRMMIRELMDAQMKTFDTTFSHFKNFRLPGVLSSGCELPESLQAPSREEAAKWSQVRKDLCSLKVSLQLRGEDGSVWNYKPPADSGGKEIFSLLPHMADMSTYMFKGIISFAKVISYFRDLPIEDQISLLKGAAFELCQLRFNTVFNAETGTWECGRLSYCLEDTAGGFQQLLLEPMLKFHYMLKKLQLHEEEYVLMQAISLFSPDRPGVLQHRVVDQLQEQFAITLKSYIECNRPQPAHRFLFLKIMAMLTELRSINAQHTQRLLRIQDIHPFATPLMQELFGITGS

Hepatitis C virus [6] = test: Antiviral activity against HCV genotype 2b by replicon assay; format: functional, organism-based, Hepacivirus hominis
Hepatitis C virus [7] = test: Antiviral activity against HCV genotype 3a by replicon assay; format: functional, organism-based, Hepacivirus hominis

COC(=O)N[C@H](C(=O)N1CCC[C@H]1c1ncc(-c2ccc(-c3cc4cc(-c5cnc([C@@H]6CCCN6C(=O)[C@@H](NC(=O)OC)C(C)C)[nH]5)ccc4o3)cc2)[nH]1)C(C)C
pEC50 (Hepatitis C virus [1]): 9.40 | pEC50 (Hepatitis C virus [2]): 7.62 | pEC50 (Hepatitis C virus [3]): 12.00 | pEC50 (Hepatitis C virus [4]): 11.00 | pEC50 [5]: 5.48 | pEC50 (Hepatitis C virus [6]): 6.54 | pEC50 (Hepatitis C virus [7]): 8.40
